# pIC50: −log10 of the molar value. Values joined by “and” are separate entries in the source; they are usually repeats but may differ in a detail not shown here. Identical values can stand only once. Like-named read-outs stand apart in the source and are kept apart here.
# Legend:
# [1] = target: Human Constitutive (Hu C-20S) β5 Active Subunit (Homo sapiens, UniProt P28074); experiment: IC50 determination, human constitutive 20S proteasome β5c (suc-LLVY-AMC hydrolysis); assay type: biochemical; conditions: Table 2; several values in a cell are repeat determinations; read-out: Hu c-20S IC50
# [2] = target: Mtb20SOG (Mycobacterium tuberculosis, UniProt P9WHT9); experiment: biochemical
# Sequence of Mtb20SOG (P9WHT9 58-291): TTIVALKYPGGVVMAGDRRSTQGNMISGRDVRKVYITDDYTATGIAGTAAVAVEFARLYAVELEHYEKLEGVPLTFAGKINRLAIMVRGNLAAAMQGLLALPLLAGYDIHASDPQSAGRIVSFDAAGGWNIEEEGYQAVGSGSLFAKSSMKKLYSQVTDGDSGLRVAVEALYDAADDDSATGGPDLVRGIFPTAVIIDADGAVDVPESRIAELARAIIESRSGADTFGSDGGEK
# [3] = Table 2, several values in a cell are repeat determinations
SMILES,pIC50 [1],pIC50 [2],"pIC50 [2, 3]"
CC(C)CCC(=O)N[C@@H](CC(=O)N1CCCC[C@@H]1C(F)(F)F)C(=O)N[C@@H](C)c1nc(-c2ccc(F)cc2F)c[nH]1 [CF-503212],5.31,6.46,–
CC[C@H]1CCCCN1C(=O)C[C@H](NC(=O)CCC(C)C)C(=O)N[C@@H](C)c1nc2cc(F)c(F)cc2[nH]1 [CF-503229],5.30,5.22,–
C[C@H](NC(=O)[C@H](CC(=O)N1CCCC[C@@H]1C)NS(=O)(=O)CCC1CC1)c1ncc(-c2ccc(F)cc2F)[nH]1 [CF-503206],5.21,–,6.30
CC[C@H]1CCCCN1C(=O)C[C@H](NC(=O)CCC(C)C)C(=O)N[C@@H](C)c1nc2cc(F)cc(F)c2[nH]1 [CF-503219],5.39 and 5.35,6.10 and 6.08,–
CC[C@H]1CCCCN1C(=O)C[C@H](Nc1nc(Cc2ccc(F)cc2)no1)C(=O)N[C@@H](C)c1nc2c(F)cccc2[nH]1 [CF-503419],5.87 and 5.92,6.59 and 6.50,–
C[C@H](NC(=O)[C@H](CC(=O)N1CCCC[C@@H]1C)NC(=O)CCc1ccccc1)C(=O)NCc1cccc(N)c1,6.16,–,8.30
CC[C@H]1CCCCN1C(=O)C[C@H](NC(=O)NCc1ccccc1)C(=O)N[C@@H](C)c1nc2c(F)cccc2[nH]1 [CF-503304],5.03,6.44 and 6.49,–
CC1CC(C(=O)N[C@@H](CC(=O)N2CCC[C@@H]2c2ccccc2)C(=O)NC(C)c2nc3ccccc3[nH]2)C1 (some centres unmarked) [CF-503155],5.08,6.90,–
CC(NC(=O)C(CC(=O)N1CCCCC1C)NC(=O)C1CC(C)(C)C1)c1nc(-c2ccc(F)cc2F)c[nH]1 (centres unmarked) [CF-503474],5.25,7.85,–
C[C@H](NC(=O)[C@H](CC(=O)N1CCC[C@@H]1C)NC(=O)CCC(C)(C)C)c1ncc(-c2ccc(F)cc2F)[nH]1 [CF-503162],5.20 and 5.24,–,6.76 and 6.89
Cc1cc(C(=O)N[C@@H](CC(=O)N2CCCC[C@@H]2C)C(=O)N[C@@H](C)c2ncc(-c3ccccc3F)[nH]2)no1 [CF-503103],< 4.82,6.80 and 6.51,–
Cc1cc(C(=O)N[C@@H](CC(=O)N2CCC[C@@H]2c2ccccc2)C(=O)N[C@@H](C)c2nc3ccccc3[nH]2)no1 [CF-503152],4.96 and 5.01,6.74 and 6.90,–
CC[C@H]1CCCCN1C(=O)C[C@H](NS(=O)(=O)CCC(C)C)C(=O)N[C@@H](C)c1nc2c(F)cccc2[nH]1 [CF-503230],4.75 and 5.07,–,6.40 and 6.28
CC(C)CCC(=O)N[C@@H](CC(=O)N1CCC[C@@H]1c1ccccc1)C(=O)NC(C)c1nc2ccccc2[nH]1 (some centres unmarked) [CF-503153],4.70,–,7.54 and 7.28
CC[C@H]1CCCCN1C(=O)C[C@H](NC(=O)CCC(C)(C)C)C(=O)N[C@@H](C)c1nc2c(F)cccc2[nH]1 [CF-503222],4.95 and 4.91 and 4.93,–,7.82 and 7.54 and 7.39
CC(C)CCC(=O)N[C@@H](CC(=O)N1CCCCCC1)C(=O)N[C@@H](C)c1nc(-c2ccc(F)cc2F)c[nH]1 [CF-503214],4.99,6.18,–
CC[C@H]1CCCCN1C(=O)C[C@H](NC(=O)CC1CC1)C(=O)N[C@@H](C)c1nc2c(F)cccc2[nH]1 [CF-503318],4.77,6.95,–
"C[C@H](NC(=O)[C@H](CC(=O)N1CCCC[C@@H]1C)NC(=O)C1CC(C)(C)C1)c1nc2c(F)cccc2[nH]1 (single isomer, unassigned) [CF-503465]",5.12 and 5.72,–,7.60 and 7.49
CC(C)CCC(=O)N[C@@H](CC(=O)N(C)C(C)C)C(=O)N[C@@H](C)c1ncc(-c2ccc(F)cc2F)[nH]1 [CF-503200],4.83,–,6.04
CC[C@H]1CCCCN1C(=O)C[C@H](Nc1nc2ccc(C)cc2o1)C(=O)N[C@@H](C)c1nc2c(F)cccc2[nH]1 [CF-503360],5.95 and 5.84 and 5.85,–,6.90 and 6.72 and 6.45 and 6.44
CC[C@H]1CCCCN1C(=O)C[C@H](NC(=O)CCC(C)C)C(=O)N[C@@H](C)c1ncc(-c2ccc(F)cc2F)[nH]1 [CF-503213],5.35,–,7.48 and 7.54
CC(NC(=O)C(CC(=O)N1CCCCC1C)NC(=O)N(C)Cc1ccccc1)c1nc2c(F)cccc2[nH]1 (centres unmarked) [CF-503460],4.76,6.57,–
CC[C@H]1CCCCN1C(=O)C[C@H](NC(=O)CCC(C)C)C(=O)N[C@@H](C)c1nc2ccccc2[nH]1 [CF-503216],4.83 and 4.84,6.53 and 6.48,–
CC[C@H]1CCCCN1C(=O)C[C@H](NC(=O)CC(F)(F)F)C(=O)N[C@@H](C)c1nc2c(F)cccc2[nH]1 [CF-503319],5.38,6.49,–
Cc1cc(C(=O)N[C@@H](CC(=O)N2CCCC[C@@H]2C)C(=O)N[C@@H](C)c2ncc(-c3ccccc3)[nH]2)no1 [CF-503102],4.85 and 5.00,–,6.14 and 6.36
C[C@H](NC(=O)[C@H](CC(=O)N1CCC[C@@H]1c1ccccc1)Nc1nc2ccccc2o1)c1ncc(-c2ccccc2F)[nH]1 [CF-503242],4.77 and 4.69,–,6.12 and 6.17
C[C@H](NC(=O)[C@H](CC(=O)N1CCCC[C@@H]1C)NS(=O)(=O)c1ccccc1)c1ncc(-c2ccc(F)cc2F)[nH]1 [CF-503142],5.09,–,6.19
CC[C@H]1CCCCN1C(=O)C[C@H](Nc1nc2cc(C)ccc2o1)C(=O)N[C@@H](C)c1nc2c(F)cccc2[nH]1 [CF-503357],5.72,6.59,–

SMILES,pIC50 [1],pIC50 [2],"pIC50 [2, 3]"
CC(C)C1CC1C(=O)N[C@@H](CC(=O)N1CCCC[C@@H]1C)C(=O)N[C@@H](C)c1nc2c(F)cccc2[nH]1 (some centres unmarked) [CF-503381],5.61,–,7.39 and 7.44
CC[C@H]1CCCCN1C(=O)C[C@H](NC(=O)CCc1ccccc1)C(=O)N[C@@H](C)c1nc2c(F)cccc2[nH]1 [CF-503291],5.58 and 5.47,8.15 and 8.22,–
CC(C)CCS(=O)(=O)N[C@@H](CC(=O)N1CCC[C@@H]1c1ccccc1)C(=O)NC(C)c1nc2ccccc2[nH]1 (some centres unmarked) [CF-503154],4.93,–,6.94 and 6.69
Cc1cc(C(=O)N[C@@H](CC(=O)N2CCCCC2C)C(=O)N(C)[C@@H](C)C(=O)NCc2ccc(F)cc2F)no1 (some centres unmarked),4.72,–,5.00
Cc1cc(C(=O)N[C@@H](CC(=O)N2CCCC[C@@H]2C)C(=O)N[C@@H](C)c2nc3c(F)cccc3[nH]2)no1 [CF-503274],5.15,7.16,–
CC(NC(=O)C(CC(=O)N1CCCCC1C)NC(=O)C1CC1c1ccccc1)c1nc2c(F)cccc2[nH]1 (centres unmarked) [CF-503363],5.10,7.29,–
C[C@H](NC(=O)[C@H](CC(=O)N1CCCC[C@@H]1C)NC(=O)CCc1ccccc1)C(=O)NCc1cccc(NC(=O)OC(C)(C)C)c1,4.30,–,4.61
CC(NC(=O)C(CC(=O)N1CCCCC1C)NC(=O)OCc1ccccc1)c1nc2c(F)cccc2[nH]1 (centres unmarked) [CF-503462],4.83,6.92,–
Cc1cc(C(=O)N[C@@H](CC(=O)N2CCCC[C@@H]2C)C(=O)N[C@@H](C)c2ncc(-c3ccc(F)cc3F)[nH]2)no1 [CF-503111],5.14 and 5.26,7.39 and 7.47,–
C[C@H](NC(=O)N(CC(=O)N1CCCC[C@@H]1C)NC(=O)CCC(C)(C)C)C(=O)NCc1ccc(F)cc1F [CF-503202],5.07 and 5.04,–,5.08 and 5.06
CC[C@H]1CCCCN1C(=O)C[C@H](NC(=O)[C@@H]1C[C@H]1c1ccccc1)C(=O)N[C@@H](C)c1nc2c(F)cccc2[nH]1 [CF-503382],4.92,–,6.78
CC(C)CS(=O)(=O)N[C@@H](CC(=O)N1CCCC[C@@H]1C)C(=O)N[C@@H](C)c1ncc(-c2ccc(F)cc2F)[nH]1 [CF-503141],5.31,–,6.43
CC(NC(=O)C(CC(=O)N1CCCCC1C)NC(=O)C1CC1C(C)C)c1nc(-c2ccc(F)cc2F)c[nH]1 (centres unmarked) [CF-503475],5.32,7.47,–
C[C@H](NC(=O)[C@H](CC(=O)N1CCCC[C@@H]1C)NCC(=O)c1ccccc1)c1ncc(-c2ccc(F)cc2F)[nH]1 [CF-503145],4.82,–,5.00
CC(C)CCS(=O)(=O)NC(CC(=O)N1CCCC1c1ccccc1)C(=O)NC(C)c1nc2ccccc2[nH]1 (centres unmarked) [CF-503184],4.97,5.59,–
C[C@H](NC(=O)[C@H](CC(=O)N1CCCC[C@@H]1C)NC(=O)CCC1CC1)c1ncc(-c2ccc(F)cc2F)[nH]1 [CF-503204],4.93,–,7.01
C[C@H](NC(=O)[C@H](CC(=O)N1CCC[C@@H]1C)NC(=O)CCC(C)(C)C)c1nc2ccccc2[nH]1 [CF-503163],4.78,5.46,–
C[C@@H](NC(=O)[C@H](CC(=O)N1CCC[C@@H]1C)NC(=O)CCC(C)(C)C)c1nc2ccccc2[nH]1 [CF-503190],4.76,5.58,–
C[C@H](NC(=O)[C@@H](N)CC(=O)N1CCC[C@@H]1c1ccccc1)c1ncc(-c2ccccc2F)[nH]1 [CF-503240],4.03,–,5.07
CC(C)CCC(=O)N[C@@H](CC(=O)N1CCCC[C@@H]1C)C(=O)NCc1nc2ccccc2[nH]1 [CF-503193],4.75,–,6.19
CC(C)CCC(=O)N[C@@H](CC(=O)N1CCCC1)C(=O)N[C@@H](C)c1ncc(-c2ccc(F)cc2F)[nH]1 [CF-503159],4.98,–,5.46
CC(C)CCC(=O)N[C@@H](CC(=O)N1CCOC[C@@H]1C)C(=O)N[C@@H](C)c1nc(-c2ccc(F)cc2F)c[nH]1 [CF-503210],4.82,6.39,–
Cc1cc(C(=O)N[C@@H](CC(=O)N2CCC[C@@H]2c2ccccc2)C(=O)NC(C)c2nc3ccccc3[nH]2)no1 (some centres unmarked) [CF-503127],5.15,7.08 and 7.00,–
CC(C)CCNc1nc(C(=O)N[C@@H](C)C(=O)NCc2ccc(F)cc2F)cc(N2CCCC2)n1 [CF-503175],5.34 and 5.26,–,5.34 and 5.25
CC(C)CCS(=O)(=O)N[C@@H](CC(=O)N1CCC[C@@H]1c1ccccc1)C(=O)N[C@@H](C)c1nc2ccccc2[nH]1 [CF-503183],4.99 and 5.01 and 5.00,–,6.65 and 6.62 and 6.91
Cc1cc(C(=O)N[C@@H](CC(=O)N2CCCC[C@@H]2C)C(=O)N[C@@H](C)c2nc3ccccc3[nH]2)no1 [CF-503148],4.76,–,6.04
C[C@H](NC(=O)N(CC(=O)N1CCCC[C@@H]1C)NC(=O)OC(C)(C)C)C(=O)NCc1ccc(F)cc1F [CF-503201],5.07 and < 5.10,–,5.08 and < 5.10
